Assay results: patent US20230226070A1, “TREATMENT OF THROMBOSIS AND ASSOCIATED DISORDERS WITH AN ANTI-PLATELET AGENT” (THE HEART RESEARCH INSTITUTE LTD, priority 2020, published 2023)
Entries after “also recorded” stand apart in the source; their conditions may differ. Where a SMILES comes first, the peptide text is derived from it. Bridges are numbered along the chain shown (N, C = ends). [ ]: non-standard residue; d: D form. hArg = N=C(N)NCCCC[C@H](N)C(=O)O; Mpa = O=C(O)CCS

How the values were obtained:
tail bleeding = test: 3 mm tail lop (tail transection) bleeding assay
Method: Bleeding was assessed using a 3 mm tail lop assay. Drug treatments (bolus) were administered 10 min before the start of tail bleeding. When a 30 min infusion was used, the tail bleeding experiment began as soon as the infusion finished. Following drug administration, a 3 mm long section of the tail tip was removed using a scalpel blade and the tail tip immersed in warmed saline. Bleeding was monitored until cessation and the time recorded. […] If the tail did re-bleed, length of time of rebleeding was also recorded. The experiment was ended when bleeding had ceased for at least 2 min, or at 30 min post-tail tip removal. Haemoglobin was quantified using 2 methods [(i, ii) using Abs 575 nm; (iii) using a colorimetric haemoglobin assay, as per the manufacturer's instructions (Sigma Aldrich, Haemoglobin Assay Kit MAK115)]. The treatment dosing regimens were as follows: rtPA (10 mg/kg: 1 mg/kg bolus, 9 mg/kg infusion over 30 min); Integrilin (1-10 mg/kg, bolus every 15 minutes); TGX221 (2.5 mg/kg; single bolus 15 minutes prior to lop); Arg—argatroban (80 ug/kg bolus; 40 ug/kg/min infusion 60). […] Data are presented as mean±SEM.
In addition, 15 minutes following commencement of treatment administration, tail transection (3 mm) was performed, and the tail tip immersed in warm (37° C.) saline to allow for blood collection from the tail (as described under “Methods”). Flow of blood was assessed over 30 minutes and any periods of blood flow cessation and rebleeding noted. Blood monitoring and collection was ceased at 30 minutes after lop, for all mice. Haemoglobin content was assessed in the collected sample using a colorimetric haemoglobin assay, as per the manufacturer's instructions (Sigma Aldrich, Haemoglobin Assay Kit MAK115). Data was analysed using a one-way ANOVA relative to Vehicle. […] The bar graph depicts mean±SD, where ***P<0.0005, ^nsP>0.05.

[1] = test system: ischaemic stroke after carotid artery thrombotic occlusion and contralateral stenosis; assay type: in vivo
[2] = test system: occlusive thrombus in the mouse carotid artery; test: carotid artery thrombosis model: occlusive thrombus formation induced by electrolytic injury, recanalisation classified from carotid blood flow; assay type: in vivo, C57BL/6 male mice; settings: for thrombolysis, recanalisation and vessel reocclusion (in words): dual therapy: antiplatelet agent 2.5 mg/kg together with rtPA 10 mg/kg; for comparative anti-platelet efficacy in vivo, TGX221 versus AZD6482: each 2.5 mg/kg combined with rtPA 10 mg/kg; for lysis of 4.5 hours aged clots (in words): treatment 270 min after occlusion, triple therapy versus rtPA/argatroban dual therapy; for recanalisation of older (aged) clots (in words): triple therapy: rtPA + argatroban + antiplatelet agent (2.5 mg/kg, 2x bolus), treatment 15, 120 or 270 min after occlusion
mouse blood/platelets = test: ADP-induced aggregation in PPACK-anticoagulated PRP (Integrilin dose-response); assay type: cell-based
Text: Data are presented as mean±SEM.

Cc1cc(C(C)Nc2ccccc2)c2nc(N3CCOCC3)cc(=O)n2c1 (racemic) [TGX221, (±)-7-methyl-2-morpholin-4-yl-9-(1-phenylaminoethyl)-pyrido[1,2-a]pyrimidin-4-one]
tail bleeding (in words) (tail bleeding; administered alone (TGX221 2.5 mg/kg; Integrilin 3 mg/kg and above)): does not Increase Tail Bleeding
tail bleeding (in words) (tail bleeding; in combination with rt-PA (10 mg/kg; for TGX221 also up to 20 mg/kg)): promising bleeding profile
vessel (carotid) recanalisation (in words) ([1]; triple therapy: TGX221 2.5 mg/kg + argatroban + rtPA 10 mg/kg, 5 min after stroke onset): improved blood flow (recanalisation)
cerebral perfusion (in words) ([1]; triple therapy: TGX221 + argatroban + rtPA): improved cerebral reperfusion
cerebral infarct (TTC staining, in words) ([1]; triple therapy: TGX221 + argatroban + rtPA, 24 hours): reduced cerebral infarct
thrombolysis, recanalisation and vessel reocclusion (in words) ([2]; 15 min after occlusion): improves thrombolysis and vessel reocclusion over and above that achieved with rtPA alone; also recorded: effectively enhancing recanalisation
comparative anti-platelet efficacy in vivo, TGX221 versus AZD6482 [2]: equipotent
lysis of 4.5 hours aged clots (in words) [2]: benefit
recanalisation and reocclusion (in words) ([2]; triple therapy: TGX221 2.5 mg/kg + argatroban + rtPA 10 mg/kg, 15 min after occlusion): improving recanalisation as well as reducing reocclusion
recanalisation of older (aged) clots (in words) [2]: improving recanalization of older clots

Cc1cc([C@@H](C)Nc2ccccc2C(=O)O)c2nc(N3CCOCC3)cc(=O)n2c1 [AZD6482, (−)-2-({1R-[7-methyl-2-(morpholin-4-yl)-4-oxo-pyrido[1,2-a]pyrimidin-9-yl]ethyl}amino)benzoic acid]
thrombolysis, recanalisation and vessel reocclusion (in words) ([2]; 15 min after occlusion): improves thrombolysis and vessel reocclusion over and above that achieved with rtPA alone; also recorded: effectively enhancing recanalisation
comparative anti-platelet efficacy in vivo, TGX221 versus AZD6482 [2]: equipotent
lysis of 4.5 hours aged clots (in words) [2]: benefit
recanalisation of older (aged) clots (in words) [2]: improving recanalization of older clots

N=C(N)NCCCC[C@@H]1NC(=O)CCSSC[C@@H](C(N)=O)NC(=O)[C@@H]2CCCN2C(=O)[C@H](Cc2c[nH]c3ccccc23)NC(=O)[C@H](CC(=O)O)NC(=O)CNC1=O [Integrilin, Eptifibatide, reference compound] ([Mpa][hArg]GDWPC-NH2; disulfide 1-7)
tail bleeding / safety (in words) (tail bleeding; triple therapy with rt-PA 10 mg/kg and argatroban): accompanied by an increase in bleeding
inhibition of ADP-induced aggregation (mouse blood/platelets; 3.0 mg/kg ('Stroke' dose)): approximately 60%
inhibition of ADP-induced aggregation (mouse blood/platelets; 4.0 mg/kg ('AMI' dose)): ~80%
stable recanalisation of the occluded carotid artery (in words) ([1]; integrilin 4 mg/kg every 15 min with rtPA 10 mg/kg and argatroban): enhances stable recanalisation

rtPA: recombinant tissue plasminogen activator, thrombolytic agent, purchased from Boehringer Ingelheim
recanalisation category / re-thrombosis (in words) ([2]; rt-PA monotherapy 10 mg/kg, 15 min after occlusion, 60 min monitoring): induces transient recanalisation
clot lysis and recanalisation of the carotid, share of vessels ([2]; rtPA 10 mg/kg i.v. alone, 15 min after occlusion, blood flow monitored 60 min): approximately 25%
